From patent US20230348416A1, “GPR52 MODULATOR COMPOUNDS” (Heptares Therapeutics Limited, priority 2020, published 2023)

Target: T1, human GPR52 (Homo sapiens, UniProt Q9Y2T5)
T1 construct: expressed in transfected cells; host or cells: HEKf suspension cells infected with BacMam virus
Test: GPR52 Agonist Functional cAMP Assay
Assay type: cell-based
Settings: for EC50: HEKf cells infected with human GPR52 BacMam virus, HTRF cAMP, 30 min at 37° C., read-out: PEC50 average (converted)
Experimental: GPR52 Agonist Functional cAMP Assay
HEKf suspension cells were infected for 24 h with 0.1% v/v human GPR52 expressing BacMam virus, a modified baculovirus designed for mammalian gene expression. Following BacMam infection, cells were pelleted by centrifugation (335 g, 5 min), resuspended in cell freezing medium (Sigma) and frozen at −150° C. until required. On experiment day, 25 nL GPR52 compound dilutions, prepared in DMSO, were stamped onto proxiplates (PerkinElmer) by a LabCyte ECHO acoustic dispenser. Frozen cells were thawed and resuspended in assay stimulation buffer (Cisbio) containing 0.5 mM 3-iso-butyl-1-methylxanthine (IBMX, Sigma) to achieve a density of 2000 cells per well. 10 μl cells were added to assay plates using a Multidrop Combi Reagent Dispenser (ThermoFisher) before centrifugation (335 g, 1 min). Cells were incubated with compounds at 37° C. for 30 min prior to addition of cAMP detection reagents (HiRange cAMP kit, Cisbio) which were prepared according to the manufacturer's instructions. Plates were shaken for 1 h at room temperature before reading on a PHERAstar FS plate reader (BMG Labtech) using standard HTRF settings. HTRF ratios were obtained by dividing the acceptor emissions (665 nm) by the donor emissions (620 nm) and multiplying by 10,000.

[1] = maximal response normalised to DMSO (0%) and compound 7m of J. Med. Chem., 2014, 57, 5226 (100%)

T1 sequence (Q9Y2T5 whole entry): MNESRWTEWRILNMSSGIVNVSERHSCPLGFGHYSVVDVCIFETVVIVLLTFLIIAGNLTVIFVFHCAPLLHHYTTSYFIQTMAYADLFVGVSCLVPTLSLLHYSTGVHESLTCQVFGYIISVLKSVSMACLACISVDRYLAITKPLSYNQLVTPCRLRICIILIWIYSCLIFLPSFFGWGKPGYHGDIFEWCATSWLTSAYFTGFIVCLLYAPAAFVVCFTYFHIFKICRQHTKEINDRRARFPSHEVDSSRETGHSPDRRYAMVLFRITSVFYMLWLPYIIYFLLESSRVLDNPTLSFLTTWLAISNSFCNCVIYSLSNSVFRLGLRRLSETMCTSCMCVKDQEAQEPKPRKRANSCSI

SMILES	EC50	Emax [1]	Emax (%) [1]
O=C(CF)NC1CCCc2c1nnn2-c1cc(Cc2cc(F)cc(C(F)(F)F)c2)ccn1 (stereo not drawn) [Example 5, 2-fluoro-N-[1-(4-{[3-fluoro-5-(trifluoromethyl)phenyl]methyl}pyridin-2-yl)-4,5,6,7-tetrahydro-1H-benzotriazol-4-yl]acetamide]	0.0398 µM	94%	
CNC1CCCc2c1nnn2-c1cc(Cc2cc(F)cc(C(F)(F)F)c2)ccn1 (stereo not drawn) [Example 7, 1-(4-(3-fluoro-5-(trifluoromethyl)benzyl)pyridin-2-yl)-N-methyl-4,5,6,7-tetrahydro-1H-benzo[d][1,2,3]triazol-4-amine]	0.0316 µM	98%	
CC(=O)NC1CCCc2c1nnn2-c1cc(Cc2cc(F)cc(C(F)F)c2)ccn1 (single isomer, unassigned) [Example 13 Isomer 1, N-(1-(4-(3-(difluoromethyl)-5-fluorobenzyl)pyridin-2-yl)-4,5,6,7-tetrahydro-1H-benzo[d][1,2,3]triazol-4-yl)acetamide]	0.501 µM	73%	
CCC(=O)NC1CCCc2c1nnn2-c1cc(Cc2cc(F)cc(C(F)(F)F)c2)ccn1 (stereo not drawn) [Example 3, N-(1-(4-(3-fluoro-5-(trifluoromethyl)benzyl)pyridin-2-yl)-4,5,6,7-tetrahydro-1H-benzo[d][1,2,3]triazol-4-yl)propionamide]	0.0251 µM	96%	
CC(=O)NC1CCCc2c1nnn2-c1cc(Cc2cc(F)cc(C(F)F)c2)ccn1 (single isomer, unassigned) [Example 13 Isomer 2, N-(1-(4-(3-(difluoromethyl)-5-fluorobenzyl)pyridin-2-yl)-4,5,6,7-tetrahydro-1H-benzo[d][1,2,3]triazol-4-yl)acetamide]	0.00501 µM		93%
CC(=O)NC1CCCc2c1nnn2-c1cc(Cc2cc(F)cc(C(F)F)c2)ccn1 (stereo not drawn) [Example 13, N-(1-(4-(3-(difluoromethyl)-5-fluorobenzyl)pyridin-2-yl)-4,5,6,7-tetrahydro-1H-benzo[d][1,2,3]triazol-4-yl)acetamide]	0.0126 µM	93%	
